Measurements from patent US8530413B2, “Heterocyclically substituted methoxyphenyl derivatives with an oxo group, processes for preparation thereof and use thereof as medicaments” (Sanofi, priority 2010, dated 2013).

Target: T1, GPCR GPR40 (Rattus norvegicus, UniProt Q8K3T4)
T1 construct: expressed in transfected cells; host or cells: HEK293
Assay: In vitro FLIPR assay with recombinant cells which express the GPCR GPR40 (intracellular Ca2+)
Format: cell-based
Conditions: recombinant HEK293 cells expressing GPR40; Fluo-4 Ca2+ change; 100% = 10 μM linoleic acid
Method: In Vitro FLIPR Assay with Recombinant Cells which Express the GPCR GPR40
Function-testing assays were performed by means of the FLIPR technique (“Fluorescence Imaging Plate Reader”, Molecular Devices Corp.). For this purpose, agonist-induced changes were determined in the intracellular concentration of Ca^2+ in recombinant HEK293 cells which expressed the GPCR GPR40.
For the studies, cells were sown into 96-well microtiter plates (60 000 cells/well) and left to grow overnight. The medium was removed and the cells were incubated in buffer which contains the fluorescent dye Fluo-4. After this loading with dye, the cells were washed, test substance was added and changes were measured in the intracellular Ca^2+ concentration in the FLIPR instrument. Results were presented as the percentage change relative to the control (0%: no test substance added; 100%: 10 μM reference agonist linoleic acid added) and used to calculate dose/effect curves, and EC50 values were determined.

T1 sequence (Q8K3T4 whole entry): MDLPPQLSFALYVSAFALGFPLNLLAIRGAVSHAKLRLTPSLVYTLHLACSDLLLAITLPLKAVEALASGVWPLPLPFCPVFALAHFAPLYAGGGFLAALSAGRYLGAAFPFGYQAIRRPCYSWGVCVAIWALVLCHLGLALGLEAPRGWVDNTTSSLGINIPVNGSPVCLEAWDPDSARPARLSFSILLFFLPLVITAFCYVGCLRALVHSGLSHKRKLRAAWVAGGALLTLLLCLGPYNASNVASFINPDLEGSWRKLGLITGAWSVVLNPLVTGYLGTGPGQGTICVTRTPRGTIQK

Compound	EC50 [nM]
CC#CC(CC(=O)O)c1ccc(OCN2C(=O)CC(C)(C)c3cc(Br)ccc32)cc1 (stereo not drawn) [Example 6, 3-[4-(6-Bromo-4,4-dimethyl-2-oxo-3,4-dihydro-2H-quinolin-1-ylmethoxy)phenyl]hex-4-ynoic acid]	440
CC#CC(CC(=O)O)c1ccc(OCN2C(=O)C(CC)(CC)c3cc(Br)ccc32)cc1 (stereo not drawn) [Example 5, 3-[4-(5-Bromo-3,3-diethyl-2-oxo-2,3-dihydroindol-1-ylmethoxy)phenyl]hex-4-ynoic acid]	180
CC#CC(CC(=O)O)c1ccc(OCN2C(=O)C(C)(C)Oc3cc(Br)ccc32)cc1 (stereo not drawn) [Example 4, 3-[4-(7-Bromo-2,2-dimethyl-3-oxo-2,3-dihydrobenzo[1,4]oxazin-4-ylmethoxy)phenyl]hex-4-ynoic acid]	280
CC#CC(CC(=O)O)c1ccc(OCN2C(=O)C(C)(C)c3cc(Br)ccc32)cc1 (stereo not drawn) [Example 1, 3-[4-(5-Bromo-3,3-dimethyl-2-oxo-2,3-dihydroindol-1-ylmethoxy)phenyl]hex-4-ynoic acid]	110
CC#CC(CC(=O)O)c1ccc(OCn2c(=O)sc3ccccc32)cc1 (stereo not drawn) [Example 7, 3-[4-(2-Oxobenzothiazol-3-ylmethoxy)phenyl]hex-4-ynoic acid]	50
CC#CC(CC(=O)O)c1ccc(OCN2C(=O)C(C)(C)c3ccc(Br)cc32)cc1 (stereo not drawn) [Example 2, 3-[4-(6-Bromo-3,3-dimethyl-2-oxo-2,3-dihydro-indol-1-ylmethoxy)phenyl]hex-4-ynoic acid]	4610
CC#CC(CC(=O)O)c1ccc(OCN2C(=O)C(C)(C)Oc3cccnc32)cc1 (stereo not drawn) [Example 9]	350
CC#CC(CC(=O)O)c1ccc(OCN2C(=O)C(C)(C)c3cc(C(F)(F)F)ccc32)cc1 (stereo not drawn) [Example 3, 3-[4-(3,3-Dimethyl-2-oxo-5-trifluoromethyl-2,3-dihydroindol-1-ylmethoxy)phenyl]hex-4-ynoic acid]	130
CC#CC(CC(=O)O)c1ccc(OCN2C(=O)C(C)(C)Oc3ccccc32)cc1 (stereo not drawn) [Example 8, 3-[4-(2,2-Dimethyl-3-oxo-2,3-dihydrobenzo[1,4]oxazin-4-ylmethoxy)phenyl]hex-4-ynoic acid]	60
